From PubChem BioAssay AID246 (DTP/NCI, 2004) come the findings set out here.

Structures are written as SMILES. Several values for one entry are separate records, joined by “and”; a condition that tells them apart may be missing. Identical values can stand only once. Toxic doses and inconclusive results are not listed.

The test system of the assay is BDF1 mice, P1081 chloroleukemia ip, survival T/C. The experiment in a line: NCI In Vivo Anticancer Drug Screen. Data for tumor model P1081 Chloroleukemia (intraperitoneal) in B6D2F1 (BDF1) mice. Particulars: endpoint: mean survival time, higher = longer survival. As to the method:
The antitumor activity of compounds was measured in mice bearing transplantable tumors. Survival or tumor size were measured and the results are expressed as the measurement made in the treated group (T) divided by the measurement made in the vehicle treated control group (C). The tumor model used in this assay is P1081 Chloroleukemia (intraperitoneal) in B6D2F1 (BDF1) mice

The mark [1] stands for this setting: dose: 62.5 mg/kg/injection, schedule: Q01DX Z (ip), vehicle: carboxymethylcellulose (CMC).
Where [2] appears, read: dose: 125.0 mg/kg/injection, schedule: Q01DX Z (ip), vehicle: carboxymethylcellulose (CMC).
The mark [3] stands for this setting: dose: 250.0 mg/kg/injection, schedule: Q01DX Z (ip), vehicle: carboxymethylcellulose (CMC).
Setting [4] is: dose: 12.5 mg/kg/injection, schedule: Q01DX Z (ip), vehicle: carboxymethylcellulose (CMC).
[5] abbreviates: dose: 16.0 mg/kg/injection, schedule: Q01DX Z (ip), vehicle: saline.
Where [6] appears, read: dose: 12.5 mg/kg/injection, schedule: Q01DX010 (ip), vehicle: saline.
Setting [7] is: dose: 25.0 mg/kg/injection, schedule: Q01DX010 (ip), vehicle: saline.
[8] abbreviates: dose: 50.0 mg/kg/injection, schedule: Q01DX010 (ip), vehicle: saline.
The mark [9] stands for this setting: dose: 100.0 mg/kg/injection, schedule: Q01DX010 (ip), vehicle: saline.
Where [10] appears, read: dose: 4.0 mg/kg/injection, schedule: Q01DX010 (ip), vehicle: saline.
Setting [11] is: dose: 8.0 mg/kg/injection, schedule: Q01DX010 (ip), vehicle: saline.

In the case of `OCC1OC(n2cnc3c(=S)nc[nH]c32)C(O)C1O` (stereo not drawn), the T/C is, setting by setting: (dose: 20.0 mg/kg/injection, schedule: Q01DX010 (ip), vehicle: saline) 110 % of control and 105 % of control; (dose: 40.0 mg/kg/injection, schedule: Q01DX010 (ip), vehicle: saline) 110 % of control and 100 % of control; under setting [1], 160 % of control; (dose: 80.0 mg/kg/injection, schedule: Q01DX010 (ip), vehicle: saline) 115 % of control and 120 % of control; under setting [2], 158 % of control; (dose: 160.0 mg/kg/injection, schedule: Q01DX010 (ip), vehicle: saline) 120 % of control. Further, the T/C reads like this: under setting [3], 104 % of control; (dose: 500.0 mg/kg/injection, schedule: Q01DX Z (ip), vehicle: carboxymethylcellulose (CMC)) 94 % of control.

With `CCCSc1ncnc2nc[nH]c12`, the T/C runs as follows: (dose: 6.25 mg/kg/injection, schedule: Q01DX Z (ip), vehicle: carboxymethylcellulose (CMC)) 111 % of control; under setting [4], 122 % of control; (dose: 31.3 mg/kg/injection, schedule: Q01DX010 (ip), vehicle: saline) 105 % of control and 100 % of control; (dose: 62.5 mg/kg/injection, schedule: Q01DX010 (ip), vehicle: saline) 105 % of control and 111 % of control; (dose: 125.0 mg/kg/injection, schedule: Q01DX010 (ip), vehicle: saline) 105 % of control and 111 % of control; (dose: 250.0 mg/kg/injection, schedule: Q01DX010 (ip), vehicle: saline) 122 % of control and 100 % of control.

As to `CN(C)CC(=O)c1ccc(O)c(O)c1`, the T/C was 114 % of control under setting [5]; 112 % of control (dose: 31.0 mg/kg/injection, schedule: Q01DX Z (ip), vehicle: saline); 118 % of control (dose: 62.0 mg/kg/injection, schedule: Q01DX Z (ip), vehicle: saline); 115 % of control (dose: 125.0 mg/kg/injection, schedule: Q01DX Z (ip), vehicle: saline).

For `C[C@H]1C(=O)O[C@@H]2CCN3CC=C(COC(=O)[C@](C)(O)[C@@]1(C)O)[C@H]23`, the T/C (dose: 3.13 mg/kg/injection, schedule: Q01DX010 (ip), vehicle: saline) was 115 % of control and 95 % of control; the T/C (dose: 6.25 mg/kg/injection, schedule: Q01DX010 (ip), vehicle: saline) is 100 % of control; the T/C (dose: 7.5 mg/kg/injection, schedule: Q01DX Z (ip), vehicle: carboxymethylcellulose (CMC)) was 106 % of control; the T/C under setting [6] was 95 % of control; the T/C (dose: 15.0 mg/kg/injection, schedule: Q01DX Z (ip), vehicle: carboxymethylcellulose (CMC)) was 99 % of control; the T/C under setting [7] is 120 % of control and 95 % of control. In addition, the T/C is 101 % of control (dose: 30.0 mg/kg/injection, schedule: Q01DX Z (ip), vehicle: carboxymethylcellulose (CMC)); 106 % of control (dose: 60.0 mg/kg/injection, schedule: Q01DX Z (ip), vehicle: carboxymethylcellulose (CMC)); 153 % of control (dose: 120.0 mg/kg/injection, schedule: Q01DX Z (ip), vehicle: carboxymethylcellulose (CMC)); 103 % of control (dose: 240.0 mg/kg/injection, schedule: Q01DX Z (ip), vehicle: carboxymethylcellulose (CMC)).

Regarding `CS(=O)(=O)OCC(O)C(O)C(O)C(O)COS(C)(=O)=O` (stereo not drawn), the T/C by setting is: under setting [7], 110 % of control; under setting [8], 110 % of control and 100 % of control; under setting [9], 110 % of control and 105 % of control; (dose: 200.0 mg/kg/injection, schedule: Q01DX010 (ip), vehicle: saline) 111 % of control and 120 % of control; (dose: 400.0 mg/kg/injection, schedule: Q01DX010 (ip), vehicle: saline) 111 % of control.

On to `CC(=O)Nc1ccc2nc3ccc(NC(C)=O)cc3[n+](-c3ccccc3)c2c1`, for which the T/C runs as follows: under setting [4], 103 % of control; (dose: 25.0 mg/kg/injection, schedule: Q01DX Z (ip), vehicle: carboxymethylcellulose (CMC)) 109 % of control; (dose: 50.0 mg/kg/injection, schedule: Q01DX Z (ip), vehicle: carboxymethylcellulose (CMC)) 111 % of control.

With `O=C1CCC(N2C(=O)c3ccccc3C2=O)C(=O)N1` (stereo not drawn), the T/C by setting is: (dose: 18.75 mg/kg/injection, schedule: Q01DX Z (ip), vehicle: carboxymethylcellulose (CMC)) 89 % of control; (dose: 37.5 mg/kg/injection, schedule: Q01DX Z (ip), vehicle: carboxymethylcellulose (CMC)) 98 % of control; (dose: 75.0 mg/kg/injection, schedule: Q01DX Z (ip), vehicle: carboxymethylcellulose (CMC)) 94 % of control; (dose: 150.0 mg/kg/injection, schedule: Q01DX Z (ip), vehicle: carboxymethylcellulose (CMC)) 94 % of control.

On to `CN(C)c1ccc(/C=C\c2ccnc3ccccc23)cc1`, for which the T/C reads like this: (dose: 0.4 mg/kg/injection, schedule: Q01DX Z (ip), vehicle: water) 87 % of control; (dose: 0.8 mg/kg/injection, schedule: Q01DX Z (ip), vehicle: water) 99 % of control; (dose: 1.6 mg/kg/injection, schedule: Q01DX Z (ip), vehicle: water) 108 % of control and 122 % of control; (dose: 3.1 mg/kg/injection, schedule: Q01DX Z (ip), vehicle: water) 99 % of control and 105 % of control; (dose: 6.25 mg/kg/injection, schedule: Q01DX Z (ip), vehicle: water) 90 % of control and 94 % of control; (dose: 6.3 mg/kg/injection, schedule: Q01DX Z (ip), vehicle: water) 118 % of control and 120 % of control. Moreover, the T/C was 112 % of control and 94 % of control and 105 % of control (dose: 12.5 mg/kg/injection, schedule: Q01DX Z (ip), vehicle: water); 118 % of control and 88 % of control and 90 % of control (dose: 25.0 mg/kg/injection, schedule: Q01DX Z (ip), vehicle: water).

As for `C=CC(CN1CC1)OC(C)=O` (stereo not drawn), the T/C (dose: 0.24 mg/kg/injection, schedule: Q01DX Z (ip), vehicle: carboxymethylcellulose (CMC)) was 108 % of control; the T/C (dose: 0.47 mg/kg/injection, schedule: Q01DX Z (ip), vehicle: carboxymethylcellulose (CMC)) is 116 % of control; the T/C (dose: 0.94 mg/kg/injection, schedule: Q01DX Z (ip), vehicle: carboxymethylcellulose (CMC)) is 103 % of control; the T/C (dose: 3.75 mg/kg/injection, schedule: Q01DX Z (ip), vehicle: carboxymethylcellulose (CMC)) was 194 % of control; the T/C under setting [10] was 150 % of control; the T/C under setting [11] is 160 % of control. Where the note is “dose: 16.0 mg/kg/injection, schedule: Q01DX010 (ip), vehicle: saline”, the T/C is 170 % of control.

Regarding `O=C(Nc1ccc(NC2=NCCN2)cc1)c1ccc(C(=O)Nc2ccc(NC3=NCCN3)cc2)cc1`, the T/C was 161 % of control (dose: 2.0 mg/kg/injection, schedule: Q01DX010 (ip), vehicle: saline); 96 % of control (dose: 2.0 mg/kg/injection, schedule: Q01DX Z (ip), vehicle: saline); 300 % of control and 333 % of control under setting [10]; 300 % of control and 333 % of control under setting [11]; 153 % of control and 171 % of control (dose: 8.0 mg/kg/injection, schedule: Q01DX Z (ip), vehicle: saline); 190 % of control under setting [5]. In addition, the T/C (dose: 32.0 mg/kg/injection, schedule: Q01DX Z (ip), vehicle: saline) was 96 % of control.

For the compound `COc1cc(-c2ccc(Nc3ccccc3C(=O)O)c(OC)c2)ccc1Nc1ccccc1C(=O)O`, the T/C by setting is: under setting [6], 116 % of control; under setting [7], 122 % of control.

As for `CS(=O)(=O)OCCC(=O)N1CCN(C(=O)CCOS(C)(=O)=O)CC1`, the T/C reads like this: under setting [7], 150 % of control and 285 % of control; under setting [8], 260 % of control and 277 % of control; under setting [9], 120 % of control and 205 % of control.

As to `CC[C@]1(O)C[C@H]2CN(CCc3c([nH]c4ccccc34)[C@@](C(=O)OC)(c3cc4c(cc3OC)N(C=O)[C@H]3[C@@](O)(C(=O)OC)[C@H](OC(C)=O)[C@]5(CC)C=CCN6CC[C@]43[C@@H]65)C2)C1`, the T/C is, setting by setting: (dose: 0.06 mg/kg/injection, schedule: Q01DX Z (ip), vehicle: water) 112 % of control; (dose: 1.0 mg/kg/injection, schedule: Q01DX Z (ip), vehicle: water) 118 % of control.

For `O=CCC(O)C(O)C(O)CO` (stereo not drawn), the T/C reads like this: (dose: 31.25 mg/kg/injection, schedule: Q01DX Z (ip), vehicle: carboxymethylcellulose (CMC)) 95 % of control; under setting [1], 88 % of control; under setting [2], 88 % of control; under setting [3], 97 % of control.
